Reference: US20250230165A1, “HETEROCYCLIC COMPOUNDS FOR USE IN THE TREATMENT OF CANCER” (ARTIOS PHARMA LIMITED, priority 2021, published 2025)

What follows are compounds tested against T1, Human Polθ polymerase domain (aa1820-2590) (Homo sapiens, UniProt O75417) (assay: Polθ Polymerase Domain Kinact/KI Assay (PicoGreen)). Conditions: 0.8 nM Polθ, 100 nM DNA substrate, kobs vs [I] fit for 2-step covalent inhibitor.
T1 construct: Human Polθ polymerase domain (aa1820-2590) was expressed in E. coli; made in house; host or cells: E. coli
T1 sequence (O75417 1820-2590): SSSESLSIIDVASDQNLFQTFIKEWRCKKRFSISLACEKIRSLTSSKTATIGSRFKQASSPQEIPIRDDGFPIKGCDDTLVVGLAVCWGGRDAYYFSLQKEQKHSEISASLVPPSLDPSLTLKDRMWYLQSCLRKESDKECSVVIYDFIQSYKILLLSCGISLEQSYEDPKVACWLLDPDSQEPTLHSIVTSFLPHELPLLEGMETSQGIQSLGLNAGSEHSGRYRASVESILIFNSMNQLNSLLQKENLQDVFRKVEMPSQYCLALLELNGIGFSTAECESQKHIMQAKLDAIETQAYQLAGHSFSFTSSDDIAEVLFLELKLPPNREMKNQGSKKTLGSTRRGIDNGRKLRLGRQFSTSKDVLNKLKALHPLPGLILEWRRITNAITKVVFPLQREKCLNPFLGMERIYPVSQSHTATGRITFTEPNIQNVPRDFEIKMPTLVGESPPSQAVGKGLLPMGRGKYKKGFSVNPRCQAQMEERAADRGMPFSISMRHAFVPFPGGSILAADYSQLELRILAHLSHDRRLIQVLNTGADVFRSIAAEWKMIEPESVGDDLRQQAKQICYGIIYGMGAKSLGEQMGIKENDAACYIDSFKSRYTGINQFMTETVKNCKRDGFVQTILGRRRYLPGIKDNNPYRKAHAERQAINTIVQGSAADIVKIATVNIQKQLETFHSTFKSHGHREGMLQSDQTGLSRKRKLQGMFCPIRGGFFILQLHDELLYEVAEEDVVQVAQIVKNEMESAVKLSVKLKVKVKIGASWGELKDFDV
Assay type: biochemical
Procedure, shortened: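 Covalent Kinact/KI by PicoGreen DNA synthesis readout: E. coli-expressed Polθ polymerase domain (0.8 nM), 100 nM annealed DNA substrate, […], Tris pH 7.5 buffer with DTT, 1% DMSO; EDTA-stopped over 0–60 min time course. kobs from progress curves, then kobs vs [I] fit to two-step covalent model.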
For C=CC(=O)N1Cc2cc(CN3C[C@H]4CC(=O)N(c5cc(C(F)(F)F)cc(C)n5)[C@@H]4C(=O)N(C)c4cccc(C)c43)cnc2[C@H]1COC (racemic) [Example 234, (3aR,11aS)-5-(((S/R)-6-acryloyl-7-(methoxymethyl)-6,7-dihydro-5H-pyrrolo[3,4-b]pyridin-3-yl)methyl)-6,10-dimethyl-1-(6-methyl-4-(trifluoromethyl)pyridin-2-yl)-1,3a,4,5,10,11a-hexahydro-2H-benzo[b]pyrrolo[2,3-f][1,4]diazocine-2,11(3H)-dione], the Kinact/Kl was 5.85e+06 M⁻¹ s⁻¹. In the case of C=CC(=O)N1Cc2cc(CN3C[C@H]4CC(=O)N(c5cc(C(F)(F)F)cc(C)n5)[C@@H]4C(=O)N(C)c4cccc(Cl)c43)ccc2[C@@H]1CC#N (racemic) [Example 287a, 2-((S/R)-2-acryloyl-5-(((3aR,11aS)-6-chloro-10-methyl-1-(6-methyl-4-(trifluoromethyl)pyridin-2-yl)-2,11-dioxo-1,2,3,3a,4,10,11,11a-octahydro-5H-benzo[b]pyrrolo[2,3-f][1,4]diazocin-5-yl)methyl)isoindolin-1-yl)acetonitrile], the Kinact/Kl is reported as 930000 M⁻¹ s⁻¹. For C=CC(=O)N1Cc2ccc(CN3C[C@H]4CC(=O)N(c5cc(C(F)(F)F)cc(C)n5)[C@@H]4C(=O)N(C)c4cccc(Cl)c43)cc2[C@@H]1CC#N (racemic) [Example 288b, 2-((S/R)-2-acryloyl-6-(((3aR,11aS)-6-chloro-10-methyl-1-(6-methyl-4-(trifluoromethyl)pyridin-2-yl)-2,11-dioxo-1,2,3,3a,4,10,11,11a-octahydro-5H-benzo[b]pyrrolo[2,3-f][1,4]diazocin-5-yl)methyl)isoindolin-1-yl)acetonitrile], the Kinact/Kl was 500000 M⁻¹ s⁻¹. With C=CC(=O)N1Cc2ccc(CN3C[C@H]4CC(=O)N(c5cc(C(F)(F)F)cc(C)n5)[C@@H]4C(=O)N(C)c4cccc(Cl)c43)nc2[C@@H]1CC#N (racemic) [Example 289b, 2-((S/R)-6-acryloyl-2-(((3aR,11aS)-6-chloro-10-methyl-1-(6-methyl-4-(trifluoromethyl)pyridin-2-yl)-2,11-dioxo-1,2,3,3a,4,10,11,11a-octahydro-5H-benzo[b]pyrrolo[2,3-f][1,4]diazocin-5-yl)methyl)-6,7-dihydro-5H-pyrrolo[3,4-b]pyridin-7-yl)acetonitrile] the Kinact/Kl was 1.24e+06 M⁻¹ s⁻¹. For C=CC(=O)N1Cc2nc(CN3C[C@H]4CC(=O)N(c5cc(C(F)(F)F)cc(C)n5)[C@@H]4C(=O)N(C)c4cccc(Cl)c43)ccc2[C@@H]1CC#N (racemic) [Example 290a], the Kinact/Kl was 2.02e+06 M⁻¹ s⁻¹. In the case of C=CC(=O)N1Cc2ncc(CN3C[C@H]4CC(=O)N(c5cc(C(F)(F)F)cc(C)n5)[C@@H]4C(=O)N(C)c4cccc(Cl)c43)cc2[C@@H]1CC#N (racemic) [Example 291b, 2-((S/R)-6-acryloyl-3-(((3aR,11aS)-6-chloro-10-methyl-1-(6-methyl-4-(trifluoromethyl)pyridin-2-yl)-2,11-dioxo-1,2,3,3a,4,10,11,11a-octahydro-5H-benzo[b]pyrrolo[2,3-f][1,4]diazocin-5-yl)methyl)-6,7-dihydro-5H-pyrrolo[3,4-b]pyridin-5-yl)acetonitrile], the Kinact/Kl is reported as 1.48e+06 M⁻¹ s⁻¹. Work on C=CC(=O)N1Cc2cc(CN3C[C@H]4CC(=O)N(c5cc(C(F)(F)F)cc(C)n5)[C@@H]4C(=O)N(C)c4cccc(Cl)c43)cnc2[C@@H]1CC#N (racemic) [Example 292a, 2-((S/R)-6-acryloyl-3-(((3aR,11aS)-6-chloro-10-methyl-1-(6-methyl-4-(trifluoromethyl)pyridin-2-yl)-2,11-dioxo-1,2,3,3a,4,10,11,11a-octahydro-5H-benzo[b]pyrrolo[2,3-f][1,4]diazocin-5-yl)methyl)-6,7-dihydro-5H-pyrrolo[3,4-b]pyridin-7-yl)acetonitrile] yielded a Kinact/Kl of 2.97e+06 M⁻¹ s⁻¹. For C=CC(=O)N1Cc2nc(CN3C[C@H]4CC(=O)N(c5cc(C(F)(F)F)cc(C)n5)[C@@H]4C(=O)N(C)c4cccc(Cl)c43)cn2C[C@H]1C(F)(F)F (racemic) [Example 293a, (3aR,11aS)-5-(((S/R)-7-acryloyl-6-(trifluoromethyl)-5,6,7,8-tetrahydroimidazo[1,2-a]pyrazin-2-yl)methyl)-6-chloro-10-methyl-1-(6-methyl-4-(trifluoromethyl)pyridin-2-yl)-1,3a,4,5,10,11a-hexahydro-2H-benzo[b]pyrrolo[2,3-f][1,4]diazocine-2,11(3H)-dione], the Kinact/Kl was 880000 M⁻¹ s⁻¹. C=CC(=O)N1Cc2cc(CN3C[C@H]4CC(=O)N(c5cc(C(F)(F)F)cc(C)n5)[C@@H]4C(=O)N(C)c4cccc(Cl)c43)nn2C[C@@H]1C (racemic) [Example 294b, (3aR,11aS)-5-(((S/R)-5-acryloyl-6-methyl-4,5,6,7-tetrahydropyrazolo[1,5-a]pyrazin-2-yl)methyl)-6-chloro-10-methyl-1-(6-methyl-4-(trifluoromethyl)pyridin-2-yl)-1,3a,4,5,10,11a-hexahydro-2H-benzo[b]pyrrolo[2,3-f][1,4]diazocine-2,11(3H)-dione] gave a Kinact/Kl of 2.48e+06 M⁻¹ s⁻¹. With Cc1cc(C(F)(F)F)cc(N2C(=O)C[C@@H]3CN(Cc4ccc5c(c4)CN(C(=O)/C=C/CN(C)C)[C@H]5CC#N)c4c(Cl)cccc4N(C)C(=O)[C@H]32)n1 (racemic) [Example 310a, 2-((S/R)-5-(((3aR,11aS)-6-chloro-10-methyl-1-(6-methyl-4-(trifluoromethyl)pyridin-2-yl)-2,11-dioxo-1,2,3,3a,4,10,11,11a-octahydro-5H-benzo[b]pyrrolo[2,3-f][1,4]diazocin-5-yl)methyl)-2-((E)-4-(dimethylamino)but-2-enoyl)isoindolin-1-yl)acetonitrile] the Kinact/Kl was 2.31e+06 M⁻¹ s⁻¹. For Cc1cc(C(F)(F)F)cc(N2C(=O)C[C@@H]3CN(Cc4ccc5c(c4)[C@H](CC#N)N(C(=O)/C=C/CN(C)C)C5)c4c(Cl)cccc4N(C)C(=O)[C@H]32)n1 (racemic) [Example 311b, 2-((S/R)-6-(((3aR,11aS)-6-chloro-10-methyl-1-(6-methyl-4-(trifluoromethyl)pyridin-2-yl)-2,11-dioxo-1,2,3,3a,4,10,11,11a-octahydro-5H-benzo[b]pyrrolo[2,3-f][1,4]diazocin-5-yl)methyl)-2-((E)-4-(dimethylamino)but-2-enoyl)isoindolin-1-yl)acetonitrile], the Kinact/Kl was 1.22e+06 M⁻¹ s⁻¹. In the case of C=CC(=O)N1Cc2ccc(CN3C[C@H]4CC(=O)N(c5cc(C(F)(F)F)cc(C)n5)[C@@H]4C(=O)N(C)c4cccc(C)c43)nc2[C@H]1CC#N (racemic) [Example 318a, 2-((R/S)-6-acryloyl-2-(((3aR,11aS)-6,10-dimethyl-1-(6-meth-yl-4-(trifluorometh-yl)pyridin-2-yl)-2,11-dioxo-1,2,3,3a, 4,10,11,11a-octa-hydro-5H-benzo[b]pyrrolo[2,3-f][1,4]diazocin-5-yl)meth-yl)-6,7-dihydro-5H-pyrrolo[3,4-b]pyr-idin-7-yl)acetonitrile], the Kinact/Kl is reported as 1.9e+06 M⁻¹ s⁻¹. Compound C=CC(=O)N1Cc2ccc(CN3C[C@H]4CC(=O)N(c5cc(C(F)(F)F)cc(C)n5)[C@@H]4C(=O)N(C)c4cccc(C)c43)nc2[C@@H]1CC#N (racemic) [Example 318b, 2-((S/R)-6-acryloyl-2-(((3aR,11aS)-6,10-dimethyl-1-(6-meth-yl-4-(trifluorometh-yl)pyridin-2-yl)-2,11-dioxo-1,2,3,3a, 4,10,11,11a-octa-hydro-5H-benzo[b]pyrrolo[2,3-f][1,4]diazocin-5-yl)meth-yl)-6,7-dihydro-5H-pyrrolo[3,4-b]pyr-idin-7-yl)acetonitrile] has a Kinact/Kl of 1.56e+06 M⁻¹ s⁻¹.
